Experimental data as given in patent US20260078103A1, “ISOQUINOLONES AS PI3K INHIBITORS” (OnKure, Inc., priority 2022, published 2026).
Read-outs that look alike come from different tables or passages of the source.

Tests used:
Type in all cases: cell-based
[1] = test system: SKBR3 cells express WT PI3Ka; test: In vitro cell proliferation, SKBR3 cells (CellTiter-Glo); conditions: inhibition of proliferation
Summary of the method: (§1)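 Proliferation was read by CellTiter-Glo luminescence after 72 h of exposure to 10-point compound dilutions at 37 °C and 5% CO2. T47D (RPMI, 10% FBS, insulin 0.2 units/mL) and SKBR3 (McCoys 5a, 10% FBS) cells were seeded at 1,500 cells/well. EC50 was fitted from inhibition relative to DMSO and 10 uM Alpelisib.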

[2] = test system: T47D cells expressing mutant PI3Ka (H1047R); test: In vitro cell proliferation, T47D cells (CellTiter-Glo); conditions: inhibition of proliferation, read-out: Avg T-47D EC50
Summary of the method: as §1

[3] = test system: phosphorylation of AKT (pAKT) in T47D cells expressing mutant PI3Ka (H1047R); test: In vitro cell pAKT (Ser473) HTRF, T47D cells; conditions: cellular pAKT, T47D cells, mutant PI3Ka (H1047R), 6 hours, read-out: Avg T-47D IC50
Summary of the method: (§2)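 Cells seeded on plates pre-stamped with 10-point compound dilutions, then grown 6 h at 37 °C (T47D in RPMI/10% FBS/insulin; SKBR3 in McCoy's 5a/10% FBS). Lysates read for pAKT Ser473 by HTRF after overnight antibody incubation. Inhibition normalised to 0.1% DMSO and 10 uM alpelisib; IC50 by four-parameter fit.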

[4] = test system: phosphorylation of AKT (pAKT) in SKBR3 cells express WT PI3Ka; test: In vitro cell pAKT (Ser473) HTRF, SKBR3 cells; conditions: cellular pAKT
Summary of the method: as §2

Row | Structure (SMILES) | EC50 ([1]; Homo sapiens, SK-BR-3, 72 h) | EC50 ([2]; Homo sapiens, T47D, 72 h) | IC50 ([3]; Homo sapiens, T47D, 6 h) | IC50 ([4]; Homo sapiens, SK-BR-3, 6 h) | EC50 ([1]; 72 hours) | EC50 ([2]; 72 hours) | IC50 [3] | IC50 ([4]; 6 hours)
1 | Cc1cc([C@@H](C)Nc2ccccc2C(=O)O)c2cc(-c3ccc(OC4CC4)nc3)n(C)c(=O)c2c1 [Example 216] | > 15 µM | 1 to 500 nM | 1 to 500 nM | > 15 µM |  |  |  | 
2 | Cc1cc(C(C)Nc2ccccc2C(=O)O)c2cc(C3=CCC(C)(C)CC3)n(C)c(=O)c2c1 (single isomer, unassigned) [Example 6, 2-((1-(3-(4,4-dimethylcyclohex-1-en-1-yl)-2,7-dimethyl-1-oxo-1,2-dihydroisoquinolin-5-yl)ethyl)amino)benzoic acid] |  |  |  |  | 2 to 15 µM | 1 to 500 nM | 1 to 500 nM | 2 to 15 µM
3 | Cc1cc([C@@H](C)Nc2ccccc2C(=O)O)c2cc(N3CCN(c4ccccc4C#N)CC3)n(C)c(=O)c2c1 [Example 197] | > 15 µM | 1 to 500 nM | 1 to 500 nM | 2 to 15 µM |  |  |  | 
4 | Cc1cc([C@@H](C)Nc2ccccc2C(=O)O)c2cc(N3CCC(C)(O)CC3)n(C)c(=O)c2c1 [Example 260] | > 15 µM | 500 to 2000 nM | 2000 to 15000 nM | > 15 µM |  |  |  | 
5 | Cc1cc(C(C)Nc2ccccc2C(=O)O)c2cc(N3Cc4cc(F)cc(F)c4C3)n(C)c(=O)c2c1 (single isomer, unassigned) [Example 102] | > 15 µM |  |  | > 15 µM |  | 2000 to 15000 nM | > 15000 nM | 
6 | CCN1CCN(c2cc3c([C@@H](C)Nc4ccccc4C(=O)O)cc(C)cc3c(=O)n2C)CC1C(F)(F)F (single isomer, unassigned) [Example 267] |  |  |  |  | 2 to 15 µM | 1 to 500 nM | 1 to 500 nM | > 15 µM
7 | COCCC(=O)N1CCN(c2cc3c(C(C)Nc4ccccc4C(=O)O)cc(C)cc3c(=O)n2C)CC1 (single isomer, unassigned) [Example 113] |  |  |  |  | 2 to 15 µM | 1 to 500 nM | 500 to 2000 nM | > 15 µM
8 | Cc1cc([C@@H](C)Nc2ccccc2C(=O)O)c2cc(N3CCN(CC(F)F)CC3)n(C)c(=O)c2c1 [Example 162] |  |  |  |  | > 15 µM | 1 to 500 nM | 1 to 500 nM | 2 to 15 µM
9 | Cc1cc([C@@H](C)Nc2ccccc2C(=O)O)c2cc(N3CCN(CC(F)(F)C4CC4)CC3)n(C)c(=O)c2c1 [Example 244] |  |  |  |  | > 15 µM | 1 to 500 nM | 1 to 500 nM | 2 to 15 µM
10 | Cc1cc(C(C)Nc2ccccc2C(=O)O)c2cc(N3CC[C@H](c4ccccc4)C3)n(C)c(=O)c2c1 (stereo partly drawn) [Example 64] | > 15 µM | 500 to 2000 nM | 1 to 500 nM | > 15 µM |  |  |  | 
11 | C[C@@H](Nc1ccccc1C(=O)O)c1cc(F)cc2c(=O)n(C)c(-c3cnc(-c4cc(=O)n(C)cc4F)c(F)c3)cc12 [Example 42, (R)-2-((1-(3-(3,5′-difluoro-1′-methyl-2′-oxo-1′,2′-dihydro-[2,4′-bipyridin]-5-yl)-7-fluoro-2-methyl-1-oxo-1,2-dihydroisoquinolin-5-yl)ethyl)amino)benzoic acid] | > 15 µM | 500 to 2000 nM | 500 to 2000 nM | > 15 µM |  |  |  | 
12 | Cc1cc([C@@H](C)Nc2ccccc2C(=O)O)c2cc(-c3ccc(Oc4ccc(F)cc4)nc3)n(C)c(=O)c2c1 [Example 194] |  |  |  |  | > 15 µM | 500 to 2000 nM | 1 to 500 nM | > 15 µM
13 | Cc1cc([C@@H](C)Nc2ccccc2C(=O)O)c2cc(-c3ccc(C)nc3C)n(C)c(=O)c2c1 [Example 209] | > 15 µM | 500 to 2000 nM | 1 to 500 nM | > 15 µM |  |  |  | 
14 | Cc1cc([C@@H](C)Nc2ccccc2C(=O)O)c2cc(N3CCN(c4cnc(C)nc4)CC3)n(C)c(=O)c2c1 [Example 237] | 2 to 15 µM | 1 to 500 nM | 1 to 500 nM | 2 to 15 µM |  |  |  | 
15 | Cc1cc(C(C)Nc2ccccc2C(=O)O)c2cc(N3CCN(CC(F)(F)F)CC3)n(C)c(=O)c2c1 (single isomer, unassigned) [Example 9, 2-((1-(2,7-dimethyl-1-oxo-3-(4-(2,2,2-trifluoroethyl)piperazin-1-yl)-1,2-dihydroisoquinolin-5-yl)ethyl)amino)benzoic acid] |  |  |  |  | > 15 µM | 2000 to 15000 nM | 2000 to 15000 nM | > 15 µM
16 | C[C@@H](Nc1ccccc1C(=O)O)c1cc(F)cc2c(=O)n(C)c(N3C4CCC3CN(CC(F)(F)F)C4)cc12 [Example 464] | 2 to 15 µM | 1 to 500 nM | 1 to 500 nM | 2 to 15 µM |  |  |  | 

The next lines start with the values.

Row | EC50 ([1]; Homo sapiens, SK-BR-3, 72 h) | EC50 ([2]; Homo sapiens, T47D, 72 h) | IC50 ([3]; Homo sapiens, T47D, 6 h) | IC50 ([4]; Homo sapiens, SK-BR-3, 6 h) | EC50 ([1]; 72 hours) | EC50 ([2]; 72 hours) | IC50 [3] | IC50 ([4]; 6 hours) | Structure (SMILES)
17 | > 15 µM | 500 to 2000 nM | 500 to 2000 nM | > 15 µM |  |  |  |  | Cc1cc([C@@H](C)Nc2ncccc2C(=O)O)c2cc(N3CCN(CC(F)(F)F)CC3)n(C)c(=O)c2c1 [Example 503]
18 |  |  |  |  | > 15 µM | 1 to 500 nM | 1 to 500 nM | > 15 µM | CC(Nc1ccccc1C(=O)O)c1cc(F)cc2c(=O)n(C)c(-c3ccc(OC4CC(F)C4)nc3)cc12 (stereo not drawn) [Example 447]
19 | 2 to 15 µM | 1 to 500 nM | 1 to 500 nM | 2 to 15 µM |  |  |  |  | Cc1cc([C@@H](C)Nc2ccccc2C(=O)O)c2c(F)c(N3CCN(CC(F)(F)F)CC3)n(C)c(=O)c2c1 [Example 285]
20 |  |  |  |  | > 15 µM | 1 to 500 nM | 1 to 500 nM | > 15 µM | CC(Nc1cccc(F)c1C(=O)O)c1cc(F)cc2c(=O)n(C)c(-c3ccc(OCC(F)F)nc3)cc12 (stereo not drawn) [Example 457]
21 | > 15 µM | 500 to 2000 nM | 1 to 500 nM | > 15 µM |  |  |  |  | Cc1cc([C@@H](C)Nc2ccccc2C(=O)O)c2cc(-c3cnn(C(C)(C)C#N)c3)n(C)c(=O)c2c1 [Example 273]
22 |  |  |  |  | > 15 µM | 1 to 500 nM | 1 to 500 nM | > 15 µM | CC(Nc1cccc(F)c1C(=O)O)c1cc(F)cc2c(=O)n(C)c(-c3ccc(OC4CC(F)C4)nc3)cc12 (stereo not drawn) [Example 407]
23 | 2 to 15 µM | 1 to 500 nM | 1 to 500 nM | 2 to 15 µM |  |  |  |  | Cc1ccc(N2CCN(c3cc4c([C@@H](C)Nc5cccc(F)c5C(=O)O)cc(F)cc4c(=O)n3C)CC2)c(C)n1 [Example 456]
24 |  |  |  |  | > 15 µM | 500 to 2000 nM | 1 to 500 nM | > 15 µM | C[C@@H](Nc1cccc(F)c1C(=O)O)c1cc(F)cc2c(=O)n(C)c(C3C[C@@H]3C(F)F)cc12 (single isomer, unassigned) [Example 476]
25 |  |  |  |  | > 15 µM | 1 to 500 nM | 1 to 500 nM | > 15 µM | CC(Nc1ccccc1C(=O)O)c1cc(F)cc2c(=O)n(C)c(-c3cnc(OC4CC4)c(F)c3)c(F)c12 (stereo not drawn) [Example 565]
26 |  |  |  |  | > 15 µM | 1 to 500 nM | 1 to 500 nM | > 15 µM | Cc1cc([C@@H](C)Nc2ccccc2C(=O)O)c2cc(-c3cnc(C(C)(F)F)cn3)n(C)c(=O)c2c1 [Example 395]
27 |  |  |  |  | 2 to 15 µM | 1 to 500 nM | 1 to 500 nM | 2 to 15 µM | Cc1cc([C@@H](C)Nc2ccccc2C(=O)O)c2cc(N3CCN(c4cnc(C)c(F)c4)CC3)n(C)c(=O)c2c1 [Example 367]
28 | 2 to 15 µM | 1 to 500 nM | 1 to 500 nM | > 15 µM |  |  |  |  | Cc1cnc(-c2ncc(-c3cc4c([C@@H](C)Nc5ccccc5C(=O)O)cc(F)cc4c(=O)n3C)cc2F)cn1 [Example 515]
29 | 2 to 15 µM | 1 to 500 nM | 1 to 500 nM | 2 to 15 µM |  |  |  |  | Cc1ncncc1N1CCN(c2cc3c([C@@H](C)Nc4ccccc4C(=O)O)cc(F)cc3c(=O)n2C)CC1 [Example 465]
30 | > 15 µM | 1 to 500 nM | 1 to 500 nM | > 15 µM |  |  |  |  | Cc1cc([C@@H](C)Nc2ccccc2C(=O)O)c2cc(-c3cnc(C(F)(F)F)c(F)c3)n(C)c(=O)c2c1 [Example 295]
31 | > 15 µM | 500 to 2000 nM | 500 to 2000 nM | > 15 µM |  |  |  |  | COc1cccc(N[C@H](C)c2cc(C)cc3c(=O)n(C)c(N4CCN(CC(F)(F)F)CC4)cc23)c1C(=O)O [Example 300]
32 | 2 to 15 µM | 1 to 500 nM | 1 to 500 nM | 0.5 to 2 µM |  |  |  |  | Cc1ncc(N2CCN(c3cc4c([C@@H](C)Nc5ccccc5C(=O)O)cc(F)cc4c(=O)n3C)CC2)c(C)n1 [Example 495]
33 |  | 1 to 500 nM | 1 to 500 nM | > 15 µM | > 15 µM |  |  |  | Cc1cc([C@@H](C)Nc2ccccc2C(=O)O)c2cc(C3C[C@H]3C(C)C)n(C)c(=O)c2c1 (single isomer, unassigned) [Example 311]
34 | > 15 µM | 500 to 2000 nM | 1 to 500 nM | > 15 µM |  |  |  |  | C[C@@H](Nc1cccc(F)c1C(=O)O)c1cc(F)cc2c(=O)n(C)c(N3CC[C@@H](C(F)(F)F)C3)cc12 [Example 415]
35 | > 15 µM | 1 to 500 nM | 1 to 500 nM | 2 to 15 µM |  |  |  |  | Cc1cc([C@@H](C)Nc2ccc(Cl)nc2C(=O)O)c2cc(-c3cnc(C(F)(F)F)nc3)n(C)c(=O)c2c1 [Example 376]
36 | > 15 µM | 500 to 2000 nM | 1 to 500 nM | > 15 µM |  |  |  |  | C[C@@H](Nc1cccc(F)c1C(=O)O)c1cc(F)cc2c(=O)n(C)c(C3C[C@@H]3C(F)F)cc12 (single isomer, unassigned) [Example 475]
